{"source": "patent US20170368082A1", "about": "“FORMULATIONS OF BRINCIDOFOVIR” (priority 2016, published 2017)", "assay": "Phase 2 toxicokinetics of brincidofovir and cidofovir in plasma", "assay_type": "in vivo, Sprague-Dawley CD rats", "design": "Imputed Concentration, Mean: unit: ng/mL", "conditions": "plasma; for C (Concentration), individual animals: 15 mg/kg; for Imputed Concentration, individual animals / Imputed Concentration, Mean: BLQ imputed as zero", "method": "Plasma samples (108) were collected 2 hours following the initiation of dosing on Day 1 and Day 7 (Group 1), or at 1, 2, 8, and 24 hours following the initiation of dosing on Day 1, and prior to administration and at 2, 8, and 24 hours following the initiation of dosing on Day 7 (Groups 2 and 3), and analyzed to determine the concentrations of brincidofovir and the metabolite, cidofovir), by LC/MS/MS.\nApproximately 0.4 mL of whole blood was obtained via the tail vein from each animal at each time point. Animals were not fasted prior to blood collection. Blood was collected into tubes containing K2EDTA anticoagulant and placed on wet ice in an upright position, per facility SOP prior to processing. Plasma was separated by centrifugation (10 minutes at approximately 2000 g, at approximately 2-8° C.). Approximately 0.10 mL of plasma was transferred into a single cryotube appropriately labeled with study number, animal number, time point, date of sampling and sample type. Remaining plasma was transferred into a second cryotube and retained as a backup sample. Plasma frozen at approximately −80±10° C. within approximately 2 hours after collection of each blood sample until analysis. Animals were euthanized (CO2 inhalation) after the final blood collection.\nIn general, TK parameters were estimated using mean plasma concentrations of brincidofovir and cidofovir derived from the composite blood sampling design using Phoenix WinNonLin (V 6.3).\nA composite blood sampling design was used such that each rat was sampled twice per sampling day. Blood was collected via tail vein from unanesthetized animals into tubes containing anticoagulant and placed on wet ice in an upright position. Animals were not fasted prior to blood collection. Plasma was separated by centrifugation (for 10 minutes at approximately 2000 g, at approximately 2-8° C.), and transferred into individually labeled cryotubes. All cryotubes containing the collected plasma samples were appropriately labeled as to study number, animal number, time point, date of sampling and sample type. All plasma samples were obtained and frozen at approximately −80° C. (±10° C.) within approximately 2 hours after collection of each blood sample until analysis.\nRat plasma bioanalysis was conducted by Pyxant Laboratories. Plasma samples were analyzed for concentrations of brincidofovir and cidofovir using a method based upon protein precipitation extraction followed by LC-MS/MS analysis; calibration ranges for brincidofovir and cidofovir were 1.00-1500 ng/mL and 5.00-750 ng/mL, respectively, (Pyxant study number 3025) for a 50 μL aliquot of rat plasma. Sample analysis for ISR was not performed as part of this non-GLP study.\nFor the generation of Mean Profiles, all sample concentrations that were below the limit of quantitation (BLQ) were set to 0.\nAll pharmacokinetic parameter estimates were completed using a Non-Compartmental Model (Model 200-202 for IV infusion administration). The AUClast and AUCinf were calculated using the linear up log down trapezoidal rule.", "key": {"[1]": {"conditions": "brincidofovir 1 mg/kg 2-h IV infusion, female rats, Day 7, 0 h"}, "[2]": {"conditions": "brincidofovir 1 mg/kg 2-h IV infusion, female rats, Day 7, 24 h"}, "[3]": {"conditions": "brincidofovir 1 mg/kg 2-h IV infusion, male rats, Day 7, 8 h"}, "[4]": {"conditions": "brincidofovir 1 mg/kg 2-h IV infusion, male rats, Day 7, 24 h"}, "[5]": {"conditions": "brincidofovir 15 mg/kg 2-h IV infusion, female rats, Day 7, 0 h"}, "[6]": {"conditions": "brincidofovir 15 mg/kg 2-h IV infusion, male rats, Day 7, 0 h"}}, "note": "“And” between values parts separate entries of the source, which are not always exact repeats. Equal entries are not always repeated.", "data": [{"compound": "CCCCCCCCCCCCCCCCOCCCOP(=O)(O)CO[C@H](CO)Cn1ccc(N)nc1=O", "note": "[Brincidofovir]", "values": [{"measurement": "C (Concentration), individual animals", "setting": "female rats, Day 7, 24 h, listed as BCV", "result": "BLQ"}, {"measurement": "C (Concentration), individual animals", "setting": "male rats, Day 7, 0 h", "result": "BLQ"}, {"measurement": "Imputed Concentration, individual animals", "setting": "brincidofovir 1 mg/kg 2-h IV infusion, female rats, Day 1, 1 h, listed as BCV", "result": "126 ng/mL and 177 ng/mL"}, {"measurement": "Imputed Concentration, individual animals", "setting": "brincidofovir 1 mg/kg 2-h IV infusion, female rats, Day 1, 2 h, listed as BCV", "result": "164 ng/mL and 155 ng/mL"}, {"measurement": "Imputed Concentration, individual animals", "setting": "brincidofovir 1 mg/kg 2-h IV infusion, female rats, Day 1, 8 h, listed as BCV", "result": "2.30 ng/mL and 1.45 ng/mL and 0.00 ng/mL"}, {"measurement": "Imputed Concentration, individual animals", "setting": "brincidofovir 1 mg/kg 2-h IV infusion, female rats, Day 1, 24 h", "result": 0.00, "unit": "ng/mL"}, {"measurement": "Imputed Concentration, Mean", "setting": "[1]", "result": 0.00, "unit": "ng/mL"}, {"measurement": "Imputed Concentration, individual animals", "setting": "[1]", "result": 0.00, "unit": "ng/mL"}, {"measurement": "Imputed Concentration, Mean", "setting": "brincidofovir 1 mg/kg 2-h IV infusion, female rats, Day 7, 2 h", "result": 95.4, "unit": "ng/mL"}, {"measurement": "Imputed Concentration, individual animals", "setting": "brincidofovir 1 mg/kg 2-h IV infusion, female rats, Day 7, 2 h, listed as BCV", "result": "115 ng/mL and 82.1 ng/mL and 89.2 ng/mL"}, {"measurement": "Imputed Concentration, Mean", "setting": "brincidofovir 1 mg/kg 2-h IV infusion, female rats, Day 7, 8 h", "result": 2.19, "unit": "ng/mL"}, {"measurement": "Imputed Concentration, individual animals", "setting": "brincidofovir 1 mg/kg 2-h IV infusion, female rats, Day 7, 8 h, listed as BCV", "result": "6.58 ng/mL and 0.00 ng/mL (2×)"}, {"measurement": "Imputed Concentration, Mean", "setting": "[2]", "result": 0.00, "unit": "ng/mL"}, {"measurement": "Imputed Concentration, individual animals", "setting": "[2]", "result": 0.00, "unit": "ng/mL"}, {"measurement": "Imputed Concentration, individual animals", "setting": "brincidofovir 1 mg/kg 2-h IV infusion, male rats, Day 1, 1 h, listed as BCV", "result": "244 ng/mL and 280 ng/mL"}, {"measurement": "Imputed Concentration, individual animals", "setting": "brincidofovir 1 mg/kg 2-h IV infusion, male rats, Day 1, 2 h, listed as BCV", "result": "283 ng/mL and 203 ng/mL"}, {"measurement": "Imputed Concentration, individual animals", "setting": "brincidofovir 1 mg/kg 2-h IV infusion, male rats, Day 1, 8 h", "result": 0.00, "unit": "ng/mL"}, {"measurement": "Imputed Concentration, individual animals", "setting": "brincidofovir 1 mg/kg 2-h IV infusion, male rats, Day 1, 24 h", "result": 0.00, "unit": "ng/mL"}, {"measurement": "Imputed Concentration, individual animals", "setting": "brincidofovir 1 mg/kg 2-h IV infusion, male rats, Day 7, 0 h", "result": 0.00, "unit": "ng/mL"}, {"measurement": "Imputed Concentration, Mean", "setting": "brincidofovir 1 mg/kg 2-h IV infusion, male rats, Day 7, 2 h", "result": 208, "unit": "ng/mL"}, {"measurement": "Imputed Concentration, individual animals", "setting": "brincidofovir 1 mg/kg 2-h IV infusion, male rats, Day 7, 2 h, listed as BCV", "result": "255 ng/mL and 189 ng/mL and 179 ng/mL"}, {"measurement": "Imputed Concentration, Mean", "setting": "[3]", "result": 0.00, "unit": "ng/mL"}, {"measurement": "Imputed Concentration, individual animals", "setting": "[3]", "result": 0.00, "unit": "ng/mL"}, {"measurement": "Imputed Concentration, Mean", "setting": "[4]", "result": 0.00, "unit": "ng/mL"}, {"measurement": "Imputed Concentration, individual animals", "setting": "[4]", "result": 0.00, "unit": "ng/mL"}, {"measurement": "Imputed Concentration, Mean", "setting": "brincidofovir 15 mg/kg 2-h IV infusion, female rats, Day 1, 1 h", "result": 3470}, {"measurement": "Imputed Concentration, individual animals", "setting": "brincidofovir 15 mg/kg 2-h IV infusion, female rats, Day 1, 1 h, listed as BCV", "result": "3030 and 3930 and 3450"}, {"measurement": "Imputed Concentration, Mean", "setting": "brincidofovir 15 mg/kg 2-h IV infusion, female rats, Day 1, 2 h", "result": 2570}, {"measurement": "Imputed Concentration, individual animals", "setting": "brincidofovir 15 mg/kg 2-h IV infusion, female rats, Day 1, 2 h, listed as BCV", "result": "2460 and 1860 and 3380"}, {"measurement": "Imputed Concentration, Mean", "setting": "brincidofovir 15 mg/kg 2-h IV infusion, female rats, Day 1, 8 h", "result": 6.53}, {"measurement": "Imputed Concentration, individual animals", "setting": "brincidofovir 15 mg/kg 2-h IV infusion, female rats, Day 1, 8 h, listed as BCV", "result": "5.05 and 7.97 and 6.57"}, {"measurement": "Imputed Concentration, Mean", "setting": "brincidofovir 15 mg/kg 2-h IV infusion, female rats, Day 1, 24 h", "result": 2.02}, {"measurement": "Imputed Concentration, individual animals", "setting": "brincidofovir 15 mg/kg 2-h IV infusion, female rats, Day 1, 24 h, listed as BCV", "result": "2.32 and 1.25 and 2.48"}, {"measurement": "Imputed Concentration, Mean", "setting": "[5]", "result": 0.00}, {"measurement": "Imputed Concentration, individual animals", "setting": "[5]", "result": 0.00}, {"measurement": "Imputed Concentration, Mean", "setting": "brincidofovir 15 mg/kg 2-h IV infusion, female rats, Day 7, 2 h", "result": 1660}, {"measurement": "Imputed Concentration, individual animals", "setting": "brincidofovir 15 mg/kg 2-h IV infusion, female rats, Day 7, 2 h, listed as BCV", "result": "2220 and 995 and 1750"}, {"measurement": "Imputed Concentration, individual animals", "setting": "brincidofovir 15 mg/kg 2-h IV infusion, female rats, Day 7, 8 h, listed as BCV", "result": "5.32 and 6.27 and 4.75"}, {"measurement": "Imputed Concentration, Mean", "setting": "brincidofovir 15 mg/kg 2-h IV infusion, male rats, Day 1, 1 h", "result": 4370}, {"measurement": "Imputed Concentration, individual animals", "setting": "brincidofovir 15 mg/kg 2-h IV infusion, male rats, Day 1, 1 h, listed as BCV", "result": "4020 and 4030 and 5060"}, {"measurement": "Imputed Concentration, Mean", "setting": "brincidofovir 15 mg/kg 2-h IV infusion, male rats, Day 1, 2 h", "result": 2840}, {"measurement": "Imputed Concentration, individual animals", "setting": "brincidofovir 15 mg/kg 2-h IV infusion, male rats, Day 1, 2 h, listed as BCV", "result": "2510 and 2990 and 3010"}, {"measurement": "Imputed Concentration, Mean", "setting": "brincidofovir 15 mg/kg 2-h IV infusion, male rats, Day 1, 8 h", "result": 9.59}, {"measurement": "Imputed Concentration, individual animals", "setting": "brincidofovir 15 mg/kg 2-h IV infusion, male rats, Day 1, 8 h, listed as BCV", "result": "10.7 and 8.23 and 9.85"}, {"measurement": "Imputed Concentration, Mean", "setting": "brincidofovir 15 mg/kg 2-h IV infusion, male rats, Day 1, 24 h", "result": 1.22}, {"measurement": "Imputed Concentration, individual animals", "setting": "brincidofovir 15 mg/kg 2-h IV infusion, male rats, Day 1, 24 h, listed as BCV", "result": "1.20 and 1.10 and 1.36"}, {"measurement": "Imputed Concentration, Mean", "setting": "[6]", "result": 0.00}, {"measurement": "Imputed Concentration, individual animals", "setting": "[6]", "result": 0.00}, {"measurement": "Imputed Concentration, Mean", "setting": "brincidofovir 15 mg/kg 2-h IV infusion, male rats, Day 7, 2 h", "result": 1910}, {"measurement": "Imputed Concentration, individual animals", "setting": "brincidofovir 15 mg/kg 2-h IV infusion, male rats, Day 7, 2 h, listed as BCV", "result": "1640 and 1940 and 2150"}, {"measurement": "Imputed Concentration, individual animals", "setting": "brincidofovir 15 mg/kg 2-h IV infusion, male rats, Day 7, 8 h, listed as BCV", "result": "9.82 and 7.60 and 8.73"}]}]}
